{"source": "patent US6028112A", "about": "“Spirocyclopropyl fluorenes as melatonergic agents” (Bristol-Myers Squibb Company, priority 1998, dated 2000)"}
{"biological_target": "T1, melatonin ML1A receptor (Homo sapiens, UniProt P48039)", "T1 construct": "expressed in transfected cells; membrane homogenates", "T1 sequence (P48039 whole entry)": "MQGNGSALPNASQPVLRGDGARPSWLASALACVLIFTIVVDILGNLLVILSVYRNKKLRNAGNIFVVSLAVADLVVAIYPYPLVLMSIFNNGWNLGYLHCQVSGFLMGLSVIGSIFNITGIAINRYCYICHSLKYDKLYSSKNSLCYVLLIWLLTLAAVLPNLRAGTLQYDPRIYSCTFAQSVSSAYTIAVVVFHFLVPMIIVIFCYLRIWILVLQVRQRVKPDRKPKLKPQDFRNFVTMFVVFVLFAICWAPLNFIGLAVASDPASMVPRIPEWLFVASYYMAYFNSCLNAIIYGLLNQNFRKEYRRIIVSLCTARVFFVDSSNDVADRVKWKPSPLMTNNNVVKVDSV", "experiment": "Melatonergic receptor binding activity (2-[125I]-iodomelatonin, membrane homogenates of NIH-3T3 cells expressing the ML1A receptor)", "conditions": "37° C., 1 hour, class symbols, read-out: Melatonin Binding Affinity (IC50 Range)", "description": "Melatonergic Receptor Binding Activity\n(a) TME=50 mM Tris buffer containing 12.5 mM MgCl2, and 2 mM EDTA, pH 7.4 at 37° C. with concentrated HCl.\n(b) Wash buffer: 20 mM Tris base containing 2 mM MgCl2. pH 7.4 at room temperature.\n(c) 10^-4 M melatonin (10^-5 M final concentration).\n(d) 2-[^125 I]-iodomelatonin, […] final concentration\n2. Membrane Homogenates. The melatonin ML1A receptor cDNA was subcloned into pcDNA3 and introduced into NIH-3T3 cells using Lipofectamine. Transformed NIH-3T3 cells resistant to geneticin (G-418) were isolated, and single colonies expressing high levels of 2[^125 Iiodomelatonin binding were isolated. Cells are maintained in DMEM supplemented with 10% calf serum and G-418 (0.5 g/liter). Cells are grown to confluency in T-175 flasks, scraped using Hank's balanced salt solution, and frozen at -80° C. For preparing membrane homogenates,pellets are thawed on ice, and resuspended in TME buffer in the presence of 10 μg/ml aprotinin and leupeptin, and 100 μM phenylmethylsulfonylfluoride. The cells were then homogenized using a dounce homogenizer, and centrifuged. The resulting pellet was resuspended with dounce homogenizer in TME (supplemented with the above protease inhibitors) and frozen. On the day of assay, the small aliquot was thawed on ice and resuspended in ice cold TME (1:50-1:100 v/v) and held on ice until assayed.\n3. Incubation: 37° C. for 1 hour. Reaction is terminated by filtration. Filters are washed 3 times.\n4. References: Reppert, S. M., and Ebisawa, R. (1994). Neuron, 13, 1177-1185.", "units": {"IC50": "µM"}}
{"smiles": "CCC(=O)NCC1CC12c1cc(OC)ccc1-c1ccc(OC)cc12", "note": "(single isomer, unassigned; (+)) [Example 5, (+)-N-[(2',7'-Dimethoxyspiro[cyclopropane-1,9'-[9H]fluoren]-2-yl)methyl]propanamide]", "IC50": "< 0.01"}
{"smiles": "CCC(=O)NCC1CC12c1cc(OC)ccc1-c1ccc(OC)cc12", "note": "(single isomer, unassigned; (-)) [Example 4, (-)-N-[(2'7'-Dimethoxyspiro[cyclopropane-1,9'-[9H]fluoren]-2-yl)methyl]propanamide]", "IC50": "< 0.01"}
{"smiles": "CCC(=O)NCC1CC12c1cc(OC)ccc1-c1ccc(OC)cc12", "note": "(centres unmarked) [Example 3, N-[(2',7'-Dimethoxyspiro[cyclopropane-1,9'-[9H]fluoren]-2-yl)methyl]propanamide]", "IC50": "< 0.01"}
{"smiles": "COc1ccc2c(c1)C1(CC1CNC(C)=O)c1cc(OC)ccc1-2", "note": "(centres unmarked) [Example 6, N-[(2',7'-Dimethoxyspiro[cyclopropane-1,9'-[9H]fluoren]-2-yl)methyl]acetamide]", "IC50": "< 0.01"}
{"smiles": "CCCC(=O)NCC1CC12c1cc(OC)ccc1-c1ccc(OC)cc12", "note": "(centres unmarked) [Example 7, N-[(2',7'-Dimethoxyspiro[cyclopropane-1,9'-[9H]fluoren]-2-yl)methyl]butanamide]", "IC50": "< 0.01"}
{"smiles": "COc1ccc2c(c1)C1(CC1CNC(=O)C1CC1)c1cc(OC)ccc1-2", "note": "(centres unmarked) [Example 8, N-[(2',7'-Dimethoxyspiro[cyclopropane-1,9'-[9H]fluoren]-2-yl)methyl]cyclopropane carboxamide]", "IC50": "< 0.01"}
{"smiles": "COc1ccc2c(c1)C1(CC1CNC(=O)C1CCC1)c1cc(OC)ccc1-2", "note": "(centres unmarked) [Example 9, N-[(2',7'-Dimethoxyspiro[cyclopropane-1,9'-[9H]fluoren]-2-yl)methyl]-cyclobutane carboxamide]", "IC50": "0.01 to 0.1"}
{"smiles": "COc1ccc2c(c1)C1(CC1CNC(=O)C(C)(C)C)c1cc(OC)ccc1-2", "note": "(centres unmarked) [Example 10, N-[(2',7'-Dimethoxyspiro[cyclopropane-1,9'-[9H]fluoren]-2-yl)methyl]-2,2-dimethylpropanamide]", "IC50": "0.1 to 0.25"}
{"smiles": "CCC(=O)NCC1CC12c1cc(F)ccc1-c1ccc(OC)cc12", "note": "(stereo not drawn) [Example 12, cis-N-[(2'-Fluoro-7'-methoxy-spiro[cyclopropane-1,9'-[9H]fluoren]-2-yl)methyl]propanamide]", "IC50": "< 0.01"}
{"smiles": "CCC(=O)NCC1CC12c1cc(F)ccc1-c1ccc(OC)cc12", "note": "(stereo not drawn) [Example 13, trans-N-[(2'-Fluoro-7'-methoxy-spiro[cyclopropane-1,9'-[9H]fluoren]-2-yl)methyl]propanamide]", "IC50": "< 0.01"}
{"tested_on": "circadian rhythms in rats", "experiment": "not given", "conditions": "exogenous administration, Cassone, et al., 1986; cited from earlier work"}
{"smiles": "COc1ccc2[nH]cc(CCNC(C)=O)c2c1", "note": "[melatonin, N-acetyl-5-methoxytryptamine]", "synchronization of circadian rhythms": "found to synchronize circadian rhythms in rats"}
